This passage reports IC50 and EC50 results from patent US9682991B2, “Tricyclic compounds for use as kinase inhibitors” (FUNDACIÓN CENTRO NACIONAL DE INVESTIGACIONES ONCOLOGICAS …, priority 2009, dated 2017).

One assay addresses PIM-1 (Homo sapiens (Human), UniProt P11309). The assay is described as follows: PIM-1 biochemical assay (ADP Hunter).
For another assay, the target named is PIM-2 (Homo sapiens (Human), UniProt Q9P1W9). The assay is described as follows: PIM-2 biochemical assay (ADP Hunter). Conditions: semi-quantitative; read-out: PIM2 IC50. The source says:
The biochemical assay to measure PIM-2 activity relies on the ADP Hunter assay kit (DiscoveRx Corp., Cat. #90-0077), that determines the amount of ADP as direct product of the kinase enzyme activity.

Assay [1] deals with Bad S112 phosphorylation in H1299 cells overexpressing Pim1 (H1299Pim1). The assay is described as follows: Bad S112 phosphorylation inhibition assay (In Cell ELISA). The class given is cell-based. The settings on record: read-out: EC50 BadP ELISA H1299 Pim1. Here is the method:
Efficacy of compounds of the invention on the inhibition of Bad phosphorylation was measured by an In Cell ELISA. EC50 values were established for the tested compounds.
Cells: H1299 cells overexpressing Pim1 (H1299Pim1)
Cells were seeded in 15000 cells per 200 μl per well into 96-well plates and incubated for 16 h at 37° C., 5% CO2. On day two, nine serial 1:2 compound dilutions were made in DMSO in a 96-well plate. The compounds were added to duplicate wells in 96-well cell plates using a FX BECKMAN robot (Beckman Coulter) and incubated at 37° C. with CO2 atmosphere. After 4 hours, relative levels of Bad S112 phosphorylation were measured in Cell ELISA using SuperSignal ELISA Femto substrate (Pierce) and read on VICTOR (Perkin Elmer). EC50 values were calculated using ActivityBase from IDBS.

Another assay concerns the target PIM-3 (Homo sapiens (Human), UniProt Q86V86). The assay is described as follows: PIM-3 biochemical assay (ADP Hunter). Conditions: semi-quantitative; read-out: PIM3 IC50.
[2] abbreviates: read-out: PIM1 IC50, semi-quantitative.
[3] abbreviates: Homo sapiens, NCI-H1299, semi-quantitative.

Where two headings read alike, the source gives them in different places. A value given as a limit tells only on which side of the number the result lay.

Sequence of PIM-1 (P11309 whole entry): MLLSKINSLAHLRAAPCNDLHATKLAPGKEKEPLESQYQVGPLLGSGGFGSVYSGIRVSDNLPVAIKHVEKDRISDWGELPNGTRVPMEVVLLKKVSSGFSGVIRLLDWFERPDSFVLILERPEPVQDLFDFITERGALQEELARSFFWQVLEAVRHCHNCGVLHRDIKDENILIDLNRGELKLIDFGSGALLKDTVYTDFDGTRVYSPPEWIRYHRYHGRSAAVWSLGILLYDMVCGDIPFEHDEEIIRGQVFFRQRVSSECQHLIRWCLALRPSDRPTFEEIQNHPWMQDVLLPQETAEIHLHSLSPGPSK
Sequence of PIM-2 (Q9P1W9 whole entry): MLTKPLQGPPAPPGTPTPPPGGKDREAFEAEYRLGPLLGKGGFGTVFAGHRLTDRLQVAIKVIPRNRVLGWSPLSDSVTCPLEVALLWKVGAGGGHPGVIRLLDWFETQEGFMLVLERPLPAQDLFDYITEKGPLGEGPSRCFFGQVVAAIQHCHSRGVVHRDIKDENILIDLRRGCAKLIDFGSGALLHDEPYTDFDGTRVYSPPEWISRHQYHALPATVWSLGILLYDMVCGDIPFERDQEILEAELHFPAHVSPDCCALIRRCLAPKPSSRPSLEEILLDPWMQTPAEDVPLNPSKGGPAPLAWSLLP

Turning to `CN1CCC(Nc2nn3c(-c4cccc(OC(F)(F)F)c4)nnc3c3c2N(C)CCO3)CC1` [Example 2, (1-Methyl-piperidin-4-yl)-[6-methyl-3-(3-trifluoromethoxy-phenyl)-7,8-dihydro-6H-9-oxa-1,2,3a,4,6-pentaaza-cyclopenta[a]naphthalen-5-yl]-amine], the IC50 on PIM-1 (setting [2]) is less than 100 nM; at PIM-2, 100 to 1000 nM; at PIM-3, 100 to 1000 nM. The EC50 in assay [1] (setting [3]) fell in the range of 250 to 1000 nM.
Regarding `CN1CCOc2c1c(N1CCC(N(C)C)CC1)nn1c(-c3cccc(OC(F)(F)F)c3)nnc21` [Example 5, Dimethyl-{1-[6-methyl-3-(3-trifluoromethoxy-phenyl)-7,8-dihydro-6H-9-oxa-1,2,3a,4,6-pentaaza-cyclopenta[a]naphthalen-5-yl]-piperidin-4-yl}-amine], the IC50 was less than 100 nM at PIM-1, 100 to 1000 nM on PIM-2 and 100 to 1000 nM at PIM-3. For the same compound, the EC50 in assay [1] (setting [3]) is 250 to 1000 nM.
Turning to `CN1CCOc2c1c(NCC1CC1)nn1c(-c3cccc(OC(F)(F)F)c3)nnc21` [Example 7, Cyclopropylmethyl-[6-methyl-3-(3-trifluoromethoxy-phenyl)-7,8-dihydro-6H-9-oxa-1,2,3a,4,6-pentaaza-cyclopenta[a]naphthalen-5-yl]-amine], the IC50 on PIM-1 was less than 100 nM; on PIM-1 (read-out: PIM1 IC50), 25.2 nM; on PIM-2, 100 to 1000 nM; at PIM-3, less than 100 nM. Besides, the EC50 in assay [1] (setting [3]) fell in the range of 1000 to 10000 nM.
As to `CN1CCOc2c1c(NCc1ccc(F)cc1)nn1c(-c3cccc(OC(F)(F)F)c3)nnc21` [Example 9, (4-Fluoro-benzyl)-[6-methyl-3-(3-trifluoromethoxy-phenyl)-7,8-dihydro-6H-9-oxa-1,2,3a,4,6-pentaaza-cyclopenta[a]naphthalen-5-yl]-amine], the 50% inhibitory concentration (IC50) against PIM-1 is less than 100 nM; on PIM-1 (read-out: PIM1 IC50) it was 52.4 nM; on PIM-2, more than 1000 nM. For the same compound, in assay [1] (setting [3]), the EC50 lay within 1000 to 10000 nM.
As to `CCN1CCOc2c1c(NCC1CCN(C)CC1)nn1c(-c3cccc(OC(F)(F)F)c3)nnc21` [Example 12, [6-Ethyl-3-(3-trifluoromethoxy-phenyl)-7,8-dihydro-6H-9-oxa-1,2,3a,4,6-pentaaza-cyclopenta[a]naphthalen-5-yl]-(1-methyl-piperidin-4-ylmethyl)-amine], the IC50 at PIM-1 (setting [2]) was less than 100 nM. Besides, the EC50 in assay [1] (setting [3]) is less than 250 nM.
For `CN1CCC(CNc2nn3c(-c4cccc(OC(F)(F)F)c4)nnc3c3c2OCCN3C)CC1` [Example 17, (1-Methyl-piperidin-4-ylmethyl)-[9-methyl-3-(3-trifluoromethoxy-phenyl)-8,9-dihydro-7H-6-oxa-1,2,3a,4,9-pentaaza-cyclopenta[a]naphthalen-5-yl]-amine], the IC50 is less than 100 nM at PIM-1 (setting [2]), more than 1000 nM at PIM-2 and 100 to 1000 nM on PIM-3. In addition, the EC50 in assay [1] (setting [3]) was 1000 to 10000 nM.
Take `CN1CCOc2c(N[C@H]3CC[C@H](O)CC3)nn3c(-c4cccc(OC(F)(F)F)c4)nnc3c21` [Example 20, 4-[9-Methyl-3-(3-trifluoromethoxy-phenyl)-8,9-dihydro-7H-6-oxa-1,2,3a,4,9-pentaaza-cyclopenta[a]naphthalen-5-ylamino]-cyclohexanol]: the IC50 against PIM-1 is 100 to 1000 nM; at PIM-2, more than 1000 nM; at PIM-3, 100 to 1000 nM. The 50% effective concentration (EC50) in assay [1] (setting [3]) lay within 250 to 1000 nM.
For `CN1CCOc2c1c(NCCN1CCOCC1)nn1c(-c3cccc(OC(F)(F)F)c3)nnc21` [Example 29, [6-Methyl-3-(3-trifluoromethoxy-phenyl)-5,6,7,8-tetrahydro-9-oxa-1,2,3a,4,6-pentaaza-cyclopenta[a]naphthalen-5-yl]-(2-morpholin-4-yl-ethyl)-amine], the IC50 at PIM-2 and at PIM-3 was 100 to 1000 nM in each case. Moreover, the EC50 in assay [1] (setting [3]) is less than 250 nM.
In the case of `CN1CCC(CNc2nn3c(-c4cccc(C#N)c4)nnc3c3c2N(C)CCO3)CC1` [Example 31, 3-{6-Methyl-5-[(1-methyl-piperidin-4-ylmethyl)-amino]-7,8-dihydro-6H-9-oxa-1,2,3a,4,6-pentaaza-cyclopenta[a]naphthalen-3-yl}-benzonitrile], the half-inhibitory concentration (IC50) at PIM-1 is 100 to 1000 nM; at PIM-2, more than 1000 nM; at PIM-3 it was 100 to 1000 nM. The EC50 in assay [1] (setting [3]) was 1000 to 10000 nM.
For `CN1CCC(CNc2nn3c(-c4cccc(N(C)C)c4)nnc3c3c2N(C)CCO3)CC1` [Example 34, [3-(3-Dimethylamino-phenyl)-6-methyl-7,8-dihydro-6H-9-oxa-1,2,3a,4,6-pentaaza-cyclopenta[a]naphthalen-5-yl]-(1-methyl-piperidin-4-ylmethyl)-amine], the IC50 on PIM-1 (setting [2]) was less than 100 nM; at PIM-2, more than 1000 nM; on PIM-3, 100 to 1000 nM. Also, the concentration giving a half-maximal response (EC50) in assay [1] (setting [3]) lay in the range of 1000 to 10000 nM.
In the same order, the values of `CC1CN(C)c2c(NCC3CCN(C)CC3)nn3c(-c4cccc(OC(F)(F)F)c4)nnc3c2O1` (stereo not drawn) [Example 40, [6,8-Dimethyl-3-(3-trifluoromethoxy-phenyl)-7,8-dihydro-6H-9-oxa-1,2,3a,4,6-pentaaza-cyclopenta[a]naphthalen-5-yl]-(1-methyl-piperidin-4-ylmethyl)-amine] are less than 100 nM, 100 to 1000 nM, less than 100 nM and 250 to 1000 nM.
For `CN1CCOc2c1c(NC1CC3(CCNCC3)C1)nn1c(-c3cccc(OC(F)(F)F)c3)nnc21` [Example 49, (7-Aza-spiro[3.5]non-2-yl)-[6-methyl-3-(3-trifluoromethoxy-phenyl)-7,8-dihydro-6H-9-oxa-1,2,3a,4,6-pentaaza-cyclopenta[a]naphthalen-5-yl]-amine], at PIM-1 (setting [2]), the IC50 is less than 100 nM. Further, in assay [1] (setting [3]), the EC50 lay within 250 to 1000 nM.
`COc1ccc(-c2nnc3c4c(c(N5CCC(CN)CC5)nn23)N(C)CCO4)cc1` [Example 52, C-{1-[3-(4-Methoxy-phenyl)-6-methyl-7,8-dihydro-6H-9-oxa-1,2,3a,4,6-pentaaza-cyclopenta[a]naphthalen-5-yl]-piperidin-4-yl}-methylamine]: the values for the IC50 at PIM-1 (setting [2]), on PIM-2 and at PIM-3 were 100 to 1000 nM, more than 1000 nM and more than 1000 nM, respectively. For the same compound, in assay [1] (semi-quantitative), the EC50 lay within 1000 to 10000 nM.
For `CN1CCOc2c(N3CCC(CN)CC3)nn3c(-c4cccc(OC(F)(F)F)c4)nnc3c21` [Example 57, C-{1-[9-Methyl-3-(3-trifluoromethoxy-phenyl)-8,9-dihydro-7H-6-oxa-1,2,3a,4,9-pentaaza-cyclopenta[a]naphthalen-5-yl]-piperidin-4-yl}-methylamine], the results for the IC50 on PIM-1 (setting [2]), on PIM-2 and at PIM-3 were less than 100 nM, more than 1000 nM and more than 1000 nM, respectively. Also, the 50% effective concentration (EC50) in assay [1] (setting [3]) lay in the range of 1000 to 10000 nM.
Take `CN1CCOc2c(NCC3CCNCC3)nn3c(-c4cccc(OC(F)(F)F)c4)nnc3c21` [Example 58, [9-Methyl-3-(3-trifluoromethoxy-phenyl)-8,9-dihydro-7H-6-oxa-1,2,3a,4,9-pentaaza-cyclopenta[a]naphthalen-5-yl]-piperidin-4-ylmethyl-amine]: the IC50 was less than 100 nM on PIM-1 (setting [2]), more than 1000 nM at PIM-2 and 100 to 1000 nM at PIM-3. For the same compound, the 50% effective concentration (EC50) in assay [1] (setting [3]) is 1000 to 10000 nM.
Take `CN1CCOc2c1c(N1CCCC3(CCCN3)CC1)nn1c(-c3cccc(OC(F)(F)F)c3)nnc21` (stereo not drawn) [Example 60, 5-(1,8-Diaza-spiro[4.6]undec-8-yl)-6-methyl-3-(3-trifluoromethoxy-phenyl)-7,8-dihydro-6H-9-oxa-1,2,3a,4,6-pentaaza-cyclopenta[a]naphthalene]: the IC50 is less than 100 nM on PIM-1 (setting [2]) and 100 to 1000 nM on PIM-2. Further, the 50% effective concentration (EC50) in assay [1] (setting [3]) is less than 250 nM.
As for `CN1CCOc2c(NC3CC4(CCNCC4)C3)nn3c(-c4cccc(OC(F)(F)F)c4)nnc3c21` [Example 65, (7-Aza-spiro[3.5]non-2-yl)-[9-methyl-3-(3-trifluoromethoxy-phenyl)-8,9-dihydro-7H-6-oxa-1,2,3a,4,9-pentaaza-cyclopenta[a]naphthalen-5-yl]-amine], the half-maximal inhibitory concentration (IC50) at PIM-1 (setting [2]) is less than 100 nM; at PIM-3, 100 to 1000 nM. Moreover, in assay [1] (setting [3]), the concentration for a half-maximal effect (EC50) lay in the range of 1000 to 10000 nM.
On to `CN1CCOc2c1c(N1CC3(CCCNC3)C1)nn1c(-c3cccc(OC(F)(F)F)c3)nnc21` [Example 69, 5-(2,6-Diaza-spiro[3.5]non-2-yl)-6-methyl-3-(3-trifluoromethoxy-phenyl)-7,8-dihydro-6H-9-oxa-1,2,3a,4,6-pentaaza-cyclopenta[a]naphthalene], for which the IC50 on PIM-1 (setting [2]) is less than 100 nM; at PIM-2, 100 to 1000 nM. Further, the EC50 in assay [1] (setting [3]) was less than 250 nM.
In the case of `CN1CCC(CNc2nn3c(-c4ccc(F)cc4)nnc3c3c2N(C)CCO3)CC1` [Example 100, [3-(4-Fluoro-phenyl)-6-methyl-7,8-dihydro-6H-9-oxa-1,2,3a,4,6-pentaaza-cyclopenta[a]naphthalen-5-yl]-(1-methyl-piperidin-4-ylmethyl)-amine], the IC50 is 100 to 1000 nM at PIM-1, 181 nM on PIM-1 (read-out: PIM1 IC50) and more than 1000 nM on PIM-2. Moreover, in assay [1] (setting [3]), the concentration for a half-maximal effect (EC50) is 1000 to 10000 nM.
